# Where a SMILES comes first, the peptide text is derived from it. Bridges are numbered along the chain shown (N, C = ends). Roman numbers before positions name the chains, in order. Where no end group is shown, it is not given here.
# Legend:
# [1] = test system: C. albicans; assay: microbe, parasite or virus in culture; assay type: cell-based; details: against both C. albicans and Fusarium strains
# Protocol: The yeast strains were cultivated and suspended in Sabouraud's Dextrose (SD) broth diluted at one sixth at a starting OD600=˜0.08 in a flat-bottomed microtitre plate. A serial dilution of peptide in the same broth was mixed with the inoculum to give a final peptide concentration of 0.4-22 μM. The antifungal activity was assessed by monitoring the OD600 in cycles of 30 minutes and an orbital shaking at 100 rpm using an Infinite M200 microplate reader (Tecan Group Ltd., Switzerland) for 24/48 h at 37° C. Cultures without peptides were used as positive controls and broth alone or with 22 μM peptide served as negative controls. The minimum concentration required for complete inhibition was assessed by both visible observations as well as by measuring the OD600 and taken as the MIC. Each experiment was repeated in triplicates.
# [2] = test system: fungi; details: cited from earlier work
# [3] = test system: IOBA-NHC cells; assay type: cell-based, human; details: 24 h
# Protocol: IOBA-NHC cells were cultured under standard conditions (humidified atmosphere of 5% CO2 at 37° C.) in DMEM/F12 supplemented with 1 μg/ml bovine pancreas insulin, 2 ng/ml mouse epidermal growth factor, 0.1 μg/ml cholera toxin, […] hydrocortisone, 10% fetal bovine serum (FBS), 50 UI/ml penicillin, and 50 UI/ml streptomycin. Cells from passages 50-80 were used in all experiments. Every day, normal culture development was observed by phase-contrast microscopy. Cells were removed by gentle trypsin incubation at confluence and counted. They were seeded into 96 well culture plates (Corning, Schiphol-Rijk, The Netherlands) for microtitration analysis of flow cytotoxicity assay (˜10,000 cells/well). Cultures were kept at 37° C. for 24 h. Subconfluent cells (culture surface covering nearly 70%) were then exposed to various peptide concentrations (0.22-225 μM). Cytotoxicity was measured periodically using MultiTox-Fluor Multiplex assay kit (Promega, Wis., USA) by measuring the AFC fluorescence (λex=485 and λem=520 nm).
Compound,EC50 [3],also measured
"RGRKVVRRKK [Monomer, reference compound]",,antifungal activity [1]: weak antifungal activity
Clc1ccc(COC(Cn2ccnc2)c2ccc(Cl)cc2Cl)c(Cl)c1 (stereo not shown) [Miconazole],,Activity [2]: Broad spectrum
"CC(C)[C@H](NC(=O)[C@H](CCCCN)NC(=O)[C@H](CCCNC(=N)N)NC(=O)CNC(=O)[C@@H](N)CCCNC(=N)N)C(=O)N[C@@H](C)C(=O)N[C@@H](CCCNC(=N)N)C(=O)N[C@@H](CCCNC(=N)N)C(=O)NCCCC[C@H](NC(=O)[C@H](CCCNC(=N)N)NC(=O)[C@H](CCCNC(=N)N)NC(=O)[C@H](C)NC(=O)[C@@H](NC(=O)[C@H](CCCCN)NC(=O)[C@H](CCCNC(=N)N)NC(=O)CNC(=O)[C@@H](N)CCCNC(=N)N)C(C)C)C(=O)NCCCC[C@H](NC(=O)[C@H](CCCCNC(=O)[C@H](CCCNC(=N)N)NC(=O)[C@H](CCCNC(=N)N)NC(=O)[C@H](C)NC(=O)[C@@H](NC(=O)[C@H](CCCCN)NC(=O)[C@H](CCCNC(=N)N)NC(=O)CNC(=O)[C@@H](N)CCCNC(=N)N)C(C)C)NC(=O)[C@H](CCCNC(=N)N)NC(=O)[C@H](CCCNC(=N)N)NC(=O)[C@H](C)NC(=O)[C@@H](NC(=O)[C@H](CCCCN)NC(=O)[C@H](CCCNC(=N)N)NC(=O)CNC(=O)[C@@H](N)CCCNC(=N)N)C(C)C)C(=O)N[C@@H](CCCCN)C(=O)O [Peptide B4010-V6A] (I: H-RGRKVARRKKK-OH / II: H-RGRKVARRK / III: H-RGRKVARR / IV: H-RGRKVARR; amide I:9-IV:C, I:10-II:C, II:9-III:C)",> 225 µM,
"CC(C)[C@H](NC(=O)[C@H](CCCCN)NC(=O)[C@H](CCCNC(=N)N)NC(=O)CNC(=O)[C@@H](N)CCCNC(=N)N)C(=O)N[C@H](C(=O)N[C@@H](C)C(=O)N[C@@H](CCCNC(=N)N)C(=O)NCCCC[C@H](NC(=O)[C@H](CCCNC(=N)N)NC(=O)[C@H](C)NC(=O)[C@@H](NC(=O)[C@@H](NC(=O)[C@H](CCCCN)NC(=O)[C@H](CCCNC(=N)N)NC(=O)CNC(=O)[C@@H](N)CCCNC(=N)N)C(C)C)C(C)C)C(=O)NCCCC[C@H](NC(=O)[C@H](CCCCNC(=O)[C@H](CCCNC(=N)N)NC(=O)[C@H](C)NC(=O)[C@@H](NC(=O)[C@@H](NC(=O)[C@H](CCCCN)NC(=O)[C@H](CCCNC(=N)N)NC(=O)CNC(=O)[C@@H](N)CCCNC(=N)N)C(C)C)C(C)C)NC(=O)[C@H](CCCNC(=N)N)NC(=O)[C@H](C)NC(=O)[C@@H](NC(=O)[C@@H](NC(=O)[C@H](CCCCN)NC(=O)[C@H](CCCNC(=N)N)NC(=O)CNC(=O)[C@@H](N)CCCNC(=N)N)C(C)C)C(C)C)C(=O)N[C@@H](CCCCN)C(=O)O)C(C)C [Peptide B4010-R7A] (I: H-RGRKVVARKKK-OH / II: H-RGRKVVARK / III: H-RGRKVVAR / IV: H-RGRKVVAR; amide I:9-IV:C, I:10-II:C, II:9-III:C)",> 237 µM,
"C[C@H](NC(=O)[C@H](C)NC(=O)[C@H](C)NC(=O)[C@H](C)NC(=O)[C@H](CCCCN)NC(=O)[C@H](CCCNC(=N)N)NC(=O)CNC(=O)[C@@H](N)CCCNC(=N)N)C(=O)NCCCC[C@H](NC(=O)[C@H](C)NC(=O)[C@H](C)NC(=O)[C@H](C)NC(=O)[C@H](C)NC(=O)[C@H](CCCCN)NC(=O)[C@H](CCCNC(=N)N)NC(=O)CNC(=O)[C@@H](N)CCCNC(=N)N)C(=O)NCCCC[C@H](NC(=O)[C@H](CCCCNC(=O)[C@H](C)NC(=O)[C@H](C)NC(=O)[C@H](C)NC(=O)[C@H](C)NC(=O)[C@H](CCCCN)NC(=O)[C@H](CCCNC(=N)N)NC(=O)CNC(=O)[C@@H](N)CCCNC(=N)N)NC(=O)[C@H](C)NC(=O)[C@H](C)NC(=O)[C@H](C)NC(=O)[C@H](C)NC(=O)[C@H](CCCCN)NC(=O)[C@H](CCCNC(=N)N)NC(=O)CNC(=O)[C@@H](N)CCCNC(=N)N)C(=O)N[C@@H](CCCCN)C(=O)O [[(SEQ ID NO: 18)2K]2KK] (I: H-RGRKAAAAKKK-OH / II: H-RGRKAAAAK / III: H-RGRKAAAA / IV: H-RGRKAAAA; amide I:9-IV:C, I:10-II:C, II:9-III:C; N-terminus and C-terminus assumed)",> 273 µM,
"CC(C)[C@H](NC(=O)[C@H](CCCCN)NC(=O)[C@H](CCCNC(=N)N)NC(=O)CNC(=O)[C@@H](N)CCCNC(=N)N)C(=O)N[C@H](C(=O)N[C@@H](CCCNC(=N)N)C(=O)N[C@@H](C)C(=O)NCCCC[C@H](NC(=O)[C@H](C)NC(=O)[C@H](CCCNC(=N)N)NC(=O)[C@@H](NC(=O)[C@@H](NC(=O)[C@H](CCCCN)NC(=O)[C@H](CCCNC(=N)N)NC(=O)CNC(=O)[C@@H](N)CCCNC(=N)N)C(C)C)C(C)C)C(=O)NCCCC[C@H](NC(=O)[C@H](CCCCNC(=O)[C@H](C)NC(=O)[C@H](CCCNC(=N)N)NC(=O)[C@@H](NC(=O)[C@@H](NC(=O)[C@H](CCCCN)NC(=O)[C@H](CCCNC(=N)N)NC(=O)CNC(=O)[C@@H](N)CCCNC(=N)N)C(C)C)C(C)C)NC(=O)[C@H](C)NC(=O)[C@H](CCCNC(=N)N)NC(=O)[C@@H](NC(=O)[C@@H](NC(=O)[C@H](CCCCN)NC(=O)[C@H](CCCNC(=N)N)NC(=O)CNC(=O)[C@@H](N)CCCNC(=N)N)C(C)C)C(C)C)C(=O)N[C@@H](CCCCN)C(=O)O)C(C)C [Peptide B4010-R8A] (I: H-RGRKVVRAKKK-OH / II: H-RGRKVVRAK / III: H-RGRKVVRA / IV: H-RGRKVVRA; amide I:9-IV:C, I:10-II:C, II:9-III:C)",> 237 µM,
"C[C@H](NC(=O)[C@H](C)NC(=O)[C@H](CCCCN)NC(=O)[C@H](CCCNC(=N)N)NC(=O)CNC(=O)[C@@H](N)CCCNC(=N)N)C(=O)N[C@@H](CCCNC(=N)N)C(=O)N[C@@H](CCCNC(=N)N)C(=O)NCCCC[C@H](NC(=O)[C@H](CCCNC(=N)N)NC(=O)[C@H](CCCNC(=N)N)NC(=O)[C@H](C)NC(=O)[C@H](C)NC(=O)[C@H](CCCCN)NC(=O)[C@H](CCCNC(=N)N)NC(=O)CNC(=O)[C@@H](N)CCCNC(=N)N)C(=O)NCCCC[C@H](NC(=O)[C@H](CCCCNC(=O)[C@H](CCCNC(=N)N)NC(=O)[C@H](CCCNC(=N)N)NC(=O)[C@H](C)NC(=O)[C@H](C)NC(=O)[C@H](CCCCN)NC(=O)[C@H](CCCNC(=N)N)NC(=O)CNC(=O)[C@@H](N)CCCNC(=N)N)NC(=O)[C@H](CCCNC(=N)N)NC(=O)[C@H](CCCNC(=N)N)NC(=O)[C@H](C)NC(=O)[C@H](C)NC(=O)[C@H](CCCCN)NC(=O)[C@H](CCCNC(=N)N)NC(=O)CNC(=O)[C@@H](N)CCCNC(=N)N)C(=O)N[C@@H](CCCCN)C(=O)O [[(SEQ ID NO: 13)2K]2KK] (I: H-RGRKAARRKKK-OH / II: H-RGRKAARRK / III: H-RGRKAARR / IV: H-RGRKAARR; amide I:9-IV:C, I:10-II:C, II:9-III:C; N-terminus and C-terminus assumed)",46 µM,
"RGRKVVRRKKKRRVVKRGR [Linear Retrodimer, reference compound]",,antifungal activity [1]: weak antifungal activity
"CC(C)[C@H](NC(=O)[C@H](C)NC(=O)[C@H](CCCNC(=N)N)NC(=O)CNC(=O)[C@@H](N)CCCNC(=N)N)C(=O)N[C@H](C(=O)N[C@@H](CCCNC(=N)N)C(=O)N[C@@H](CCCNC(=N)N)C(=O)NCCCC[C@H](NC(=O)[C@H](CCCNC(=N)N)NC(=O)[C@H](CCCNC(=N)N)NC(=O)[C@@H](NC(=O)[C@@H](NC(=O)[C@H](C)NC(=O)[C@H](CCCNC(=N)N)NC(=O)CNC(=O)[C@@H](N)CCCNC(=N)N)C(C)C)C(C)C)C(=O)NCCCC[C@H](NC(=O)[C@H](CCCCNC(=O)[C@H](CCCNC(=N)N)NC(=O)[C@H](CCCNC(=N)N)NC(=O)[C@@H](NC(=O)[C@@H](NC(=O)[C@H](C)NC(=O)[C@H](CCCNC(=N)N)NC(=O)CNC(=O)[C@@H](N)CCCNC(=N)N)C(C)C)C(C)C)NC(=O)[C@H](CCCNC(=N)N)NC(=O)[C@H](CCCNC(=N)N)NC(=O)[C@@H](NC(=O)[C@@H](NC(=O)[C@H](C)NC(=O)[C@H](CCCNC(=N)N)NC(=O)CNC(=O)[C@@H](N)CCCNC(=N)N)C(C)C)C(C)C)C(=O)N[C@@H](CCCCN)C(=O)O)C(C)C [Peptide B4010-K4A] (I: H-RGRAVVRRKKK-OH / II: H-RGRAVVRRK / III: H-RGRAVVRR / IV: H-RGRAVVRR; amide I:9-IV:C, I:10-II:C, II:9-III:C)",> 231 µM,
"C[C@H](NC(=O)CNC(=O)[C@@H](N)CCCNC(=N)N)C(=O)N[C@@H](C)C(=O)N[C@@H](C)C(=O)N[C@@H](C)C(=O)N[C@@H](CCCNC(=N)N)C(=O)N[C@@H](CCCNC(=N)N)C(=O)NCCCC[C@H](NC(=O)[C@H](CCCNC(=N)N)NC(=O)[C@H](CCCNC(=N)N)NC(=O)[C@H](C)NC(=O)[C@H](C)NC(=O)[C@H](C)NC(=O)[C@H](C)NC(=O)CNC(=O)[C@@H](N)CCCNC(=N)N)C(=O)NCCCC[C@H](NC(=O)[C@H](CCCCNC(=O)[C@H](CCCNC(=N)N)NC(=O)[C@H](CCCNC(=N)N)NC(=O)[C@H](C)NC(=O)[C@H](C)NC(=O)[C@H](C)NC(=O)[C@H](C)NC(=O)CNC(=O)[C@@H](N)CCCNC(=N)N)NC(=O)[C@H](CCCNC(=N)N)NC(=O)[C@H](CCCNC(=N)N)NC(=O)[C@H](C)NC(=O)[C@H](C)NC(=O)[C@H](C)NC(=O)[C@H](C)NC(=O)CNC(=O)[C@@H](N)CCCNC(=N)N)C(=O)N[C@@H](CCCCN)C(=O)O [[(SEQ ID NO: 17)2K]2KK] (I: H-RGAAAARRKKK-OH / II: H-RGAAAARRK / III: H-RGAAAARR / IV: H-RGAAAARR; amide I:9-IV:C, I:10-II:C, II:9-III:C; N-terminus and C-terminus assumed)",> 265 µM,
